Legend:
Experiment in all cases: Post-emergence test experiment (greenhouse pot, spray at 2-3 leaf stage)
Assay type in all cases: in vivo
Details in all cases: 1000 g/ha; post-emergence spray at 2-3 leaf stage; assessed after 3 weeks; fresh weight inhibition rate
[1] = tested on: Galium spurium
In short: (§1)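 Weed seeds sown in soil-filled pots in greenhouse, sprayed at 2-3 leaf stage (2 weeks after sowing) with compound in acetone/tween-80 plus methyl oleate emulsible concentrate (1.5 L/ha) diluted in water. Fresh-weight growth inhibition scored after 3 weeks on 0-5 scale (5: >85%, 0: <5%).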

[2] = tested on: Monochoria vaginalis
In short: as §1

[3] = tested on: Digitaria sanguinalis
In short: as §1

[4] = tested on: Echinochloa crusgalli
In short: as §1

[5] = tested on: Abutilon theophrasti
In short: as §1

| Structure (SMILES) | Activity level (growth inhibition rate) Galium spurium [1] | Activity level (growth inhibition rate) Monochoria Vaginalis [2] | Activity level (growth inhibition rate) Digitaria sanguinalis [3] | Activity level (growth inhibition rate) Echinochloa crusgalli [4] | Activity level (growth inhibition rate) Abutilon theophrasti [5] |
| --- | --- | --- | --- | --- | --- |
| CCCn1cc(CCOC(=O)C(C)Oc2nc(F)c(Cl)c(N)c2Cl)cn1 (centres unmarked) [Compound 133] | 5 (Level 5: the growth inhibition rate is greater than 85%) | 5 (Level 5: the growth inhibition rate is greater than 85%) | 5 (Level 5: the growth inhibition rate is greater than 85%) | 5 (Level 5: the growth inhibition rate is greater than 85%) | 5 (Level 5: the growth inhibition rate is greater than 85%) |
| CC(Oc1nc(F)c(Cl)c(N)c1Cl)C(=O)SCc1nncn1C (centres unmarked) [Compound 134] | 5 (Level 5: the growth inhibition rate is greater than 85%) | 5 (Level 5: the growth inhibition rate is greater than 85%) | 5 (Level 5: the growth inhibition rate is greater than 85%) | 5 (Level 5: the growth inhibition rate is greater than 85%) | 5 (Level 5: the growth inhibition rate is greater than 85%) |
| CC(Oc1nc(F)c(Cl)c(N)c1Cl)C(=O)OCCc1cnn[nH]1 (centres unmarked) [Compound 135] | 5 (Level 5: the growth inhibition rate is greater than 85%) | 5 (Level 5: the growth inhibition rate is greater than 85%) | 5 (Level 5: the growth inhibition rate is greater than 85%) | 5 (Level 5: the growth inhibition rate is greater than 85%) | 5 (Level 5: the growth inhibition rate is greater than 85%) |
| CC(Oc1nc(F)c(Cl)c(N)c1Cl)C(=O)OCn1cncn1 (centres unmarked) [Compound 136] | 5 (Level 5: the growth inhibition rate is greater than 85%) | 5 (Level 5: the growth inhibition rate is greater than 85%) | 5 (Level 5: the growth inhibition rate is greater than 85%) | 5 (Level 5: the growth inhibition rate is greater than 85%) | 5 (Level 5: the growth inhibition rate is greater than 85%) |
| CC(Oc1nc(F)c(Cl)c(N)c1Cl)C(=O)SCn1ccnn1 (centres unmarked) [Compound 137] | 5 (Level 5: the growth inhibition rate is greater than 85%) | 5 (Level 5: the growth inhibition rate is greater than 85%) | 5 (Level 5: the growth inhibition rate is greater than 85%) | 5 (Level 5: the growth inhibition rate is greater than 85%) | 5 (Level 5: the growth inhibition rate is greater than 85%) |
| CC(Oc1nc(F)c(Cl)c(N)c1Cl)C(=O)OCc1nnnn1C (centres unmarked) [Compound 138] | 5 (Level 5: the growth inhibition rate is greater than 85%) | 5 (Level 5: the growth inhibition rate is greater than 85%) | 5 (Level 5: the growth inhibition rate is greater than 85%) | 5 (Level 5: the growth inhibition rate is greater than 85%) | 5 (Level 5: the growth inhibition rate is greater than 85%) |
| CC(Oc1nc(F)c(Cl)c(N)c1Cl)C(=O)SCc1ccco1 (centres unmarked) [Compound 139] | 5 (Level 5: the growth inhibition rate is greater than 85%) | 5 (Level 5: the growth inhibition rate is greater than 85%) | 5 (Level 5: the growth inhibition rate is greater than 85%) | 5 (Level 5: the growth inhibition rate is greater than 85%) | 5 (Level 5: the growth inhibition rate is greater than 85%) |
| CC(Oc1nc(F)c(Cl)c(N)c1Cl)C(=O)OCc1cnco1 (centres unmarked) [Compound 141] | 5 (Level 5: the growth inhibition rate is greater than 85%) | 5 (Level 5: the growth inhibition rate is greater than 85%) | 5 (Level 5: the growth inhibition rate is greater than 85%) | 5 (Level 5: the growth inhibition rate is greater than 85%) | 5 (Level 5: the growth inhibition rate is greater than 85%) |
| CC(Oc1nc(F)c(Cl)c(N)c1Cl)C(=O)SCCc1cocn1 (centres unmarked) [Compound 142] | 5 (Level 5: the growth inhibition rate is greater than 85%) | 5 (Level 5: the growth inhibition rate is greater than 85%) | 5 (Level 5: the growth inhibition rate is greater than 85%) | 5 (Level 5: the growth inhibition rate is greater than 85%) | 5 (Level 5: the growth inhibition rate is greater than 85%) |
| CC(Oc1nc(F)c(Cl)c(N)c1Cl)C(=O)OCc1ncco1 (centres unmarked) [Compound 143] | 5 (Level 5: the growth inhibition rate is greater than 85%) | 5 (Level 5: the growth inhibition rate is greater than 85%) | 5 (Level 5: the growth inhibition rate is greater than 85%) | 5 (Level 5: the growth inhibition rate is greater than 85%) | 5 (Level 5: the growth inhibition rate is greater than 85%) |
| CC(Oc1nc(F)c(Cl)c(N)c1Cl)C(=O)OCc1ccno1 (centres unmarked) [Compound 144] | 5 (Level 5: the growth inhibition rate is greater than 85%) | 5 (Level 5: the growth inhibition rate is greater than 85%) | 5 (Level 5: the growth inhibition rate is greater than 85%) | 5 (Level 5: the growth inhibition rate is greater than 85%) | 5 (Level 5: the growth inhibition rate is greater than 85%) |
| CC(Oc1nc(F)c(Cl)c(N)c1Cl)C(=O)SCc1ccon1 (centres unmarked) [Compound 145] | 5 (Level 5: the growth inhibition rate is greater than 85%) | 5 (Level 5: the growth inhibition rate is greater than 85%) | 5 (Level 5: the growth inhibition rate is greater than 85%) | 5 (Level 5: the growth inhibition rate is greater than 85%) | 5 (Level 5: the growth inhibition rate is greater than 85%) |
| CC(Oc1nc(F)c(Cl)c(N)c1Cl)C(=O)OCc1cnoc1 (centres unmarked) [Compound 146] | 5 (Level 5: the growth inhibition rate is greater than 85%) | 5 (Level 5: the growth inhibition rate is greater than 85%) | 5 (Level 5: the growth inhibition rate is greater than 85%) | 5 (Level 5: the growth inhibition rate is greater than 85%) | 5 (Level 5: the growth inhibition rate is greater than 85%) |
